From ChEMBL document CHEMBL1147060
The source made the active and inactive calls.

Experiments:
Mast cell = test: Inhibition of antigen-induced IL6 secretion in mouse mast cells at 1 uM after 24 hrs by ELISA; type: functional, cell-based
U-937 [1] = test: Inhibition of basal TNFalpha release in human U937 cells at 2 uM after 1 hr by ELISA; type: functional, cell-based
BMMC [2] = test: Inhibition of antigen-induced histamine release in Tec-deficient BMMC at 1 uM after 30 mins; type: functional, cell-based; conditions: Mus musculus
BMMC [3] = test: Inhibition of antigen-induced histamine release in wild-type BMMCs at 1 uM after 30 mins; type: functional, cell-based; conditions: Mus musculus
U-937 [4] = test: Inhibition of LPS-induced TNFalpha release in human U937 cells at 2 uM after 1 hr by ELISA; type: functional, cell-based
Homo sapiens = species: Homo sapiens; test: Inhibition of antigen-induced histamine release in human basophils at 1 uM after 30 mins; type: functional
U-937 [5] = test: Decrease in basal TNFalpha release in human U937 cells after 1 hr by ELISA; type: functional, cell-based
U-937 [6] = test: Decrease in LPS-induced TNFalpha release in human U937 cells after 1 hr by ELISA; type: functional, cell-based

Measured: Activity

Cc1nc(Nc2ncc(C(=O)Nc3c(C)cccc3Cl)s2)cc(N2CCN(CCO)CC2)n1
inactive: U-937 [1] | U-937 [4]
active: Mast cell | BMMC [2] | BMMC [3] | Homo sapiens | U-937 [5] | U-937 [6]
